Biological target: Phosphatidylinositol 4,5-bisphosphate 3-kinase catalytic subunit alpha isoform (Homo sapiens, UniProt P42336)
Experiment: Enzyme Assay
Source text: Inhibition of PI3 kinase by WmC20 derivatives causing a formation of covalent bond between WmC20 derivatives and the target protein.

Chain of Phosphatidylinositol 4,5-bisphosphate 3-kinase catalytic subunit alpha isoform (P42336 whole entry, canonical isoform): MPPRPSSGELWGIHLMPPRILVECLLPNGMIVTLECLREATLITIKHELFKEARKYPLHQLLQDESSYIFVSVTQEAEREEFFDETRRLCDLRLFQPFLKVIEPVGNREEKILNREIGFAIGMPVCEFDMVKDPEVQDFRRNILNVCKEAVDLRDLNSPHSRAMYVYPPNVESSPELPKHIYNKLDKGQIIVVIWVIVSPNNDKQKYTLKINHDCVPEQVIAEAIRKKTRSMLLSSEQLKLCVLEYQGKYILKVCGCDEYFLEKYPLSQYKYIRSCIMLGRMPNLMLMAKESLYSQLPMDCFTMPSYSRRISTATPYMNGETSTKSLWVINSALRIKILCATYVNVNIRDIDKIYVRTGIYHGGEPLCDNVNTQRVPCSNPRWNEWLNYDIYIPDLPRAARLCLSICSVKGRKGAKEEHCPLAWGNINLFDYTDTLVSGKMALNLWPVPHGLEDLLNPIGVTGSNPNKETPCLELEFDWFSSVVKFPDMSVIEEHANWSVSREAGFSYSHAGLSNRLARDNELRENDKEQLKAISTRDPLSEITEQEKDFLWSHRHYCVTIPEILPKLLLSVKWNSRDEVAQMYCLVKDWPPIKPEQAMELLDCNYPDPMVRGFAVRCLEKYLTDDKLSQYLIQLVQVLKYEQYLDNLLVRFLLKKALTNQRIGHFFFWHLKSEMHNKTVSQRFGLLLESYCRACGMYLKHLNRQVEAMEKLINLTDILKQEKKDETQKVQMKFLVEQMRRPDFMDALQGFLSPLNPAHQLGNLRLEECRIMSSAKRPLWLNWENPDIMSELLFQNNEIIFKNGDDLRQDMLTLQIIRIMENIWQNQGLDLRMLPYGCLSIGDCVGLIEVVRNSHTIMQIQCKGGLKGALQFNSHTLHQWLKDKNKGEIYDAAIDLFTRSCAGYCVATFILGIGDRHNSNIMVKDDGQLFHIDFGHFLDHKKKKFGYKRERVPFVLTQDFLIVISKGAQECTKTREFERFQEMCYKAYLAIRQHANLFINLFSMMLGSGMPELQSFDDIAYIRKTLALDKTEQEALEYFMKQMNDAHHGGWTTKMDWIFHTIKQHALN

Row | Structure (SMILES) | IC50
1 | COC[C@H]1OC(=O)C(=CN(C)CCCCCC(=O)O)C2C(=O)C(=O)C3=C([C@H](OC(C)=O)C[C@]4(C)C(=O)CC[C@@H]34)[C@]21C (some centres undefined) [WmC20-NMeHA, 4] | 108 nM
2 | COC[C@H]1OC(=O)C(CSCC(NC(C)=O)C(=O)O)=C2C(=O)C(=O)C3=C([C@H](OC(C)=O)C[C@]4(C)C(=O)CCC34)[C@]21C (some centres undefined) [WmC20-cys, 3] | 1140 nM
3 | COC[C@H]1OC(=O)C(=CNCCCCC(NC(C)=O)C(=O)O)C2C(=O)C(=O)C3=C([C@H](OC(C)=O)C[C@]4(C)C(=O)CC[C@@H]34)[C@]21C (some centres undefined) [WmC20-lys, 2] | > 1000 nM
4 | COC[C@H]1OC(=O)C(=CN2CCCC2C(=O)O)C2C(=O)C(=O)C3=C([C@H](OC(C)=O)C[C@]4(C)C(=O)CC[C@@H]34)[C@]21C (some centres undefined) [WmC20-pro, 1] | 68 nM
